Patent publication US20230219951A1, “PYRIDINE-PYRIMIDINE DERIVATIVE, PREPARATION METHOD THEREFOR AND PHARMACEUTICAL USE THEREOF” (Jiangsu Hengrui Pharmaceuticals Co., Ltd., priority 2020, published 2023)

Columns and labels:
[1] = molecular target: T1, interaction between the KRAS protein subtype G12D and the SOS1 protein (Homo sapiens, UniProt Q07889); assay: Inhibition of the interaction between KRAS G12D and SOS1 protein (AlphaLISA/AlphaScreen); assay type: binding; conditions: KRAS G12D + GST-TEV-SOS1(564-1049) + GDP
T1 construct: GST-TEV-SOS1(564-1049) (Viva Biotech, SOS1-191010); purchased SOS1: Viva Biotech; KRAS: Shanghai Panchao Biotechnology Co., Ltd. SOS1-191010
T1 sequence (Q07889 564-1049): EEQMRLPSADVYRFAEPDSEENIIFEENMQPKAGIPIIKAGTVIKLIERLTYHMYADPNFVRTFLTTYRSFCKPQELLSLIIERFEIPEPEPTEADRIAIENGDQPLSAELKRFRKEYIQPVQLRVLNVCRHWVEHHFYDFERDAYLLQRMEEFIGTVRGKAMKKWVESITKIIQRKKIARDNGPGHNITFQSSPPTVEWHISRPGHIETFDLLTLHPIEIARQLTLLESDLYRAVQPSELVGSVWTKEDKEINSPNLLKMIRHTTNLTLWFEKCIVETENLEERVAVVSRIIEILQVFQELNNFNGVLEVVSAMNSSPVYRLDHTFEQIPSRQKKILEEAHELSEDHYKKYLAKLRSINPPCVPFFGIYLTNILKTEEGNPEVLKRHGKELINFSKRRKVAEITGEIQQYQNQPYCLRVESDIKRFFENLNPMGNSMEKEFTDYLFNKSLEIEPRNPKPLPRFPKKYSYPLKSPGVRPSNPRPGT
Experimental: (§1) Test Example 1: Inhibitory Ability of Compounds of the Present Disclosure to the Interaction Between the KRAS Protein Subtype G12D or G12V and the SOS1 Protein. The inhibitory ability of the compounds of the present disclosure to the interaction between the KRAS protein subtype G12D or G12V and the SOS1 protein was determined by the following method. The experimental method was briefly described as follows:
(§2) 1. The experimental buffer was prepared prior to the start of the experiment: 1×PBS+0.1% BSA+0.05% tween 20.
(§3) 2. KRAS G12D and KRAS-G12V proteins were labeled with biotin using the biotin labeling kit.
(§4) 1. Firstly, the biotin-labeled KRAS G12D or KRAS G12V protein was mixed and incubated with the SOS1 protein and GDP for later use.
(§5) 2. AlphaLISA glutathione acceptor beads and AlphaScreen streptavidin donor beads were mixed at a ratio of 1:1 to make the concentration of 40 μg/mL for later use.
(§6) 3. The compound was formulated with the experimental buffer to obtain 10 concentration points by 5-fold gradient dilution from an initial concentration of 40 μM.
(§7) 4. In the 384-well microplate, 10 μL of a mixture of KRAS G12D or KRAS G12V protein and SOS1 and GDP and 5 μL of the diluted compound were added to each well and incubated at room temperature for 30 min away from the light.
(§8) 5. Then, 5 μL of a mixture of AlphaLISA glutathione acceptor beads and AlphaScreen streptavidin donor beads was added to each well and incubated at room temperature for 60 min away from the light.
(§9) 6. The fluorescence values were read on a multi-mode microplate reader.
(§10) 7. IC50 values of the compounds were calculated using Graphpad Prism.

[2] = molecular target: T2, interaction between the KRAS protein subtype G12V and the SOS1 protein (Homo sapiens, UniProt Q07889); assay: Inhibition of the interaction between KRAS G12V and SOS1 protein (AlphaLISA/AlphaScreen); assay type: binding; conditions: KRAS G12V + GST-TEV-SOS1(564-1049) + GDP
T2 construct: GST-TEV-SOS1(564-1049) (Viva Biotech, SOS1-191010); purchased SOS1: Viva Biotech; KRAS: Shanghai Panchao Biotechnology Co., Ltd. SOS1-191010
T2 sequence (Q07889 564-1049): T1 sequence (Q07889 564-1049)
Experimental: as §1, §2, §3, §4, §5, §6, §7, §8, §9, §10

H358 cells = assay: Inhibition of proliferation of H358 cells (CellTiter-Glo 3D); assay type: cell-based; conditions: Homo sapiens, NCI-H358, low adsorption plate, 120 h
Experimental: This example is intended to evaluate the inhibition effect of the compounds of the present disclosure on the KRAS target (containing the G12C mutation) by testing the inhibition effect of the compounds of the present disclosure on the proliferation of H358 cells.
H358 cells (ATCC, CRL-5807) were cultured in a complete medium, namely RPMI1640 medium (Hyclone, SH30809.01) containing 10% fetal bovine serum (Corning, 35-076-CV). On the first day of the experiment, the H358 cells were seeded into a 96-well low adsorption plate (Coming, CLS7007-24EA) at a density of 1500 cells/well with a complete medium to form 90 μL of cell suspension per well. The plate was centrifuged at 2000 rpm for 5 min at room temperature and then incubated overnight in a cell incubator at 37° C. with 5% CO2. The next day, 10 μL of test compound diluted in a gradient prepared with the complete medium was added to each well. The final concentrations of the compound were 9 concentration points obtained by 5-fold gradient dilution from 10 μM. A blank control containing 0.1% DMSO was set. The plate was incubated in a cell incubator at 37° C. with 5% CO2 for 120 h. On the seventh day, the 96-well cell culture plate was taken out and 50 μL of CellTiter-Glo® 3D reagent (Promega, G9682) was added into each well. The plate was shaken at room temperature for 25 min, pipetted and mixed well, from which 50 μL of the mixture was transferred into a white impermeable 96-well plate (PE, 6005290). The luminescence signal values were read using a multi-mode microplate reader (PerkinElmer, VICTOR 3).
IC50 values for the inhibitory activity of the compounds were calculated using Graphpad Prism software.

| SMILES | IC50 [1] [nM] | IC50 [2] [nM] | IC50 (H358 cells) [nM] |
| --- | --- | --- | --- |
| Cc1nc(N[C@H](C)c2cccc(C(F)F)c2F)c2cc(C3=CCOCC3)c(=O)[nH]c2n1 [Example 5, (R)-4-((1-(3-(difluoromethyl)-2-fluorophenyl)ethyl)amino)-6-(3,6-dihydro-2H-pyran-4-yl)-2-methylpyrido[2,3-d]pyrimidin-7(8H)-one] | 42 | 79 | 461 |
| Cc1nc(N[C@H](C)c2cccc(C(F)F)c2F)c2cc(C3=CCC(C(=O)N(C)C)CC3)c(=O)[nH]c2n1 (stereo partly drawn) [Example 13, 4-(4-(((R)-1-(3-(difluoromethyl)-2-fluorophenyl)ethyl)amino)-2-methyl-7-oxo-7,8-dihydropyrido[2,3-d]pyrimidin-6-yl)-N,N-dimethylcyclohex-3-ene-1-carboxamide] | 21.5 | 79 | 137 |
| Cc1nc(N[C@H](C)c2cccc(C(F)F)c2F)c2cc(C3(O)CCN(C(=O)CF)CC3)c(=O)[nH]c2n1 (racemic) [Example 22, rac-(R)-4-((1-(3-(difluoromethyl)-2-fluorophenyl)ethyl)amino)-6-(1-(2-fluoroacetyl)-4-hydroxypiperidin-4-yl)-2-methylpyrido[2,3-d]pyrimidin-7(8H)-one] | 14 | 27 |  |
| Cc1nc(N[C@H](C)c2cccc(C(F)(F)CO)c2F)c2cc(OC3CCOC3)c(=O)[nH]c2n1 (stereo partly drawn) [Example 9, 4-(((R)-1-(3-(1,1-difluoro-2-hydroxyethyl)-2-fluorophenyl)ethyl)amino)-2-methyl-6-(((R)-tetrahydrofuran-3-yl)oxy)pyrido[2,3-d]pyrimidin-7(8B)-one] | 8 | 41 | 106 |
| CNC(=O)C1CCC(O)(c2cc3c(N[C@H](C)c4cccc(C(F)F)c4F)nc(C)nc3[nH]c2=O)CC1 (stereo partly drawn) [Example 29, (R)-4-(4-((1-(3-(difluoromethyl)-2-fluorophenyl)ethyl)amino)-2-methyl-7-oxo-7,8-dihydropyrido[2,3-d]pyrimidin-6-yl)-4-hydroxy-N-methylcyclohexane-1-carboxamide] | 91 | 101 | 545 |
| Cc1nc(N[C@H](C)c2cccc(C(F)F)c2F)c2cc(C3(O)CCOCC3)c(=O)[nH]c2n1 [Example 19, (R)-4-((1-(3-(difluoromethyl)-2-fluorophenyl)ethyl)amino)-6-(4-hydroxytetrahydro-2H-pyran-4-yl)-2-methylpyrido[2,3-d]pyrimidin-7(8H)-one] | 47 | 154 |  |

Second part, the compound after the results:

| IC50 [1] [nM] | IC50 [2] [nM] | IC50 (H358 cells) [nM] | SMILES |
| --- | --- | --- | --- |
| 10 | 89 |  | Cc1nc(N[C@H](C)c2cccc(C(F)F)c2F)c2cc(OC3CCS(=O)(=O)CC3)c(=O)[nH]c2n1 [Example 23, (R)-4-((1-(3-(difluoromethyl)-2-fluorophenyl)ethyl)amino)-6-((1,1-dioxidotetrahydro-2H-thiopyran-4-yl)oxy)-2-methylpyrido[2,3-d]pyrimidin-7(8H)-one] |
| 34 | 80 |  | Cc1nc(N[C@H](C)c2cccc(C(F)F)c2F)c2cc(O[C@H]3CCOC3)c(=O)[nH]c2n1 [Example 10, 4-(((R)-1-(3-(difluoromethyl)-2-fluorophenyl)ethyl)amino)-2-methyl-6-(((S)-tetrahydrofuran-3-yl)oxy)pyrido[2,3-d]pyrimidin-7(8H)-one] |
| 30 | 56 | 345 | Cc1nc(N[C@H](C)c2cccc(C(F)F)c2F)c2cc(C3CCOCC3)c(=O)[nH]c2n1 [Example 6, (R)-4-((1-(3-(difluoromethyl)-2-fluorophenyl)ethyl)amino)-2-methyl-6-(tetrahydro-2H-pyran-4-yl)pyrido[2,3-d]pyrimidin-7(8H)-one] |
| 49 | 133 |  | CC(=O)N1CC[C@H](Oc2cc3c(N[C@H](C)c4cccc(C(F)F)c4F)nc(C)nc3[nH]c2=O)C1 [Example 24, 6-(((S)-1-acetylpyrrolidin-3-yl)oxy)-4-(((R)-1-(3-(difluoromethyl)-2-fluorophenyl)ethyl)amino)-2-methylpyrido[2,3-d]pyrimidin-7(8H)-one] |
